Measured values as given in paper PMC8546421, “Molecular modelling of the FOXO4-TP53 interaction to design senolytic peptides for the elimination of senescent cancer cells” (EBioMedicine, 2021).
Entries after “also recorded” stand apart in the source; their conditions may differ. Where no end group is shown, it is not given here.

What was measured:
dividing A375 cells = assay: Orthotopic xenograft of dividing luciferase A375 cells, radiance; type: in vivo, mouse; conditions: dividing A375 cells injected orthotopically, locally injected twice, imaged one day later; ES2 n=5, saline n=9
[1] = tested on: dividing A375 human melanoma cells; assay: Survival study, orthotopic A375 xenograft; type: in vivo, mouse; conditions: local injection once daily for two days
Text: Mice were aged between 3-8 months and 20-30 g in weight and were housed in specific pathogen free cages. Animals were randomly distributed among treatment groups by assigning mice within the same cage to different treatment regimens. To minimise confounders, mouse treatment order was randomised within each cage. Male and female mice were distributed between all treatment groups since the chemicals used were directly injected and are not metabolized. Researchers were not blinded to the group allocation, but all attempts were made to analyse the data without knowing treatment conditions. NOD.Cg-Prkdcscid Il2rgtm1Wjl/SzJ (NSG) were purchased from The Jackson Laboratory (IMSR Cat# JAX:005557, RRID:IMSR_JAX:005557). NOD.Cg-KitW-41J Tyr + Prkdcscid Il2rgtm1Wjl/ThomJ (NBSGW) were purchased from The Jackson Laboratory (IMSR Cat# JAX:026622, RRID:IMSR_JAX:026622). Immunocompromised mice used for these experiments were all in the NSG background; however, some mice were F1 generation of NSG x NBSGW, thus the brown coat colour as NBSGW mice have tyrosinase. Xenografts containing senescent cells were established by injecting A375-Luc/iRFP human melanoma cells which contained a luciferase expressing gene into immunocompromised NSG ears. Senescence was induced in the cells via doxorubicin treatment (40 nM) then resuspended in DMEM prior to injection. Each ear was then injected with 50 µL containing approximately 1,000,000 cells. The ears were treated once daily for two days with 50 µL of either 5 mg/mL peptide, or saline. To control for confounders, each mouse contained one ear treated with saline (control). For imaging, mice were injected with 3 mg luciferin intravenously and imaged before and after treatment. Transgenic mice (BrafCA, PtenloxP, Tyr::CreERT2) were purchased from The Jackson Laboratory (IMSR Cat# JAX:013590, RRID:IMSR_JAX:013590). These mice were maintained on a C57Bl6 background and all experimental mice contained Tyr::CreER with either Braf^CA/+, Pten^fx/+; Braf^CA/CA, Pten^fx/+, or Braf^CA/+, Pten^fx/fx. […] Hypopigmented melanomas sporadically formed over the next 3-5 months, typically on the back of the mouse. These melanomas were then directly injected with 100 µL of either 20 mg/mL ES2+10%DMSO, saline+10%DMSO, saline+10%Dabrafenib, or 20 mg/mL ES2+10%Dabrafenib. The researchers were not blinded to the experiment, but each mouse contained an internal control and all imaging was done with the same exposure times based upon control tissue. For survival analyses, either 750,000 or 25,000 A375-Luc/iRFP cells were injected intradermally into NSG mice. […] Mice were then monitored daily and allowed to age until a humane endpoint was reached according to our IACUC protocol, which in this case was tumours of 2 cm in size. […]

[2] = tested on: A375, B16F10, HCT116, MCF7, IMR90 and MCF10A cells; assay: ES2 viability (MTS) in cell line panel, senescent vs dividing; type: cell-based
Protocol: Cell lines were treated with chemotherapy, doxorubicin (Sigma, Cat. No. 2252) to induce senescence (200 nM for HCT116, 100 nM for B16-F10 and MCF7, 50 nM for SW480 and DLD-1, 40 nM for A375-Luc/iRFP and MCF10a). MCF7 cells were treated with CDK4/6 inhibitor, palbociclib (Selleck Chemicals: S1116) to induce senescence (5 µM). A375 cells were treated with Braf inhibitor, Dabrafenib (Selleck Chemicals: S2807), to induce senescence (10 µM). Peptide efficacy experiments were performed by seeding 10,000 – 20,000 cells in a 96-well plate. The cells were given doxorubicin twice to make the cells senescent. After removal of doxorubicin, the plate was treated with varying concentrations of peptide. The peptide was replenished daily for two days. Cellular proliferation was quantified using the Promega CellTiter 96™ AQueous One Solution Cell Proliferation Assay (MTS) after 2 hours according to the manufacturer's protocol (Promega, G3581). To control for the charge of ES2, ProteoJuice (Millipore Sigma, 71281) was used to deliver ES2 using the manufacturers protocol, except 50 µL of 2 mM ES2 was mixed with 25 µL of ProteoJuice. Varying concentrations of the mixture were administered to A375 cells along with a control of only ProteoJuice.

PRKGGRRRRAWGRRRRRRRRRRRRRRAPRKRLTLA [ES2]
elimination of dividing cancer cells in vivo (radiance) (dividing A375 cells): no difference in gain of radiance; also recorded: ineffective at eliminating dividing cancer cells
effect on survival time, in words ([1]; 25,000 A375 cells): no effect on survival time
effect on survival time, in words ([1]; 750,000 A375 cells): did not alter survival times
concentration of ES2 resulting in cell death, doxorubicin vs other pro-senescence agents ([2]; A375 with Dabrafenib, MCF7 with Palbociclib): no difference in concentration of ES2 resulting in cell death
IC50 in dividing cells relative to senescent cells ([2]; doxorubicin-induced senescence, all cell lines): at least 3 times
